# Target: T1, Ba/F3 cell EGFR Exon20 ins NPH (Homo sapiens, UniProt P00533, INS773NPH)
# T1 construct: expressed in transfected cells; host or cells: Ba/F3
# Test: Ba/F3 cell proliferation suppression, EGFR Exon20 ins NPH
# Format: cell-based
# Settings: GI50 class; Ba/F3 cell line with NPH inserted at Exon20 of EGFR; 72 hours
# How it was run: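 Seed 3000–5000 cells/well; after 24 h add compound (12 conc., 0.3 nM–50 um final); incubate 72 h; add CellTiter-Glo, 10 min room temperature; read luminescence; GI50 from % growth vs control, triplicate.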
row,SMILES,Ba/F3 (NPH) Activity
1,"C#Cc1cccc([C@H]2CCON2c2cc(Nc3cc(NC(=O)C=C)c(N4CCC(N5CCN(C)CC5)CC4)cc3OC)ncn2)c1 [compound 649, N-(5-((6-((R)-3-(3-ethynylphenyl)isoxazolidine-2-yl)pyrimidine-4-yl)amino)-4-methoxy-2-(4-(4-methylpiperazine-1-yl)piperidine-1-yl)phenyl) acrylamide]",A (GI50 < 50 nM)
2,"C=CCN1CCN(C2CCN(c3cc(OC)c(Nc4cc(N5OCC[C@@H]5c5cc(F)cc(Cl)c5)ncn4)cc3NC(=O)C=C)CC2)CC1 [Example 214, N-(2-(4-(4-allylpiperazine-1-yl)piperidine-1-yl)-5-((6-((R)-3-(3-chloro-5-fluorophenyl)isoxazolidine-2-yl)pyrimidine-4-yl)amino)-4-methoxyphenyl) acrylamide]",A (GI50 < 50 nM)
3,"C=CC(=O)Nc1cc(Nc2cc(N3OCC[C@@H]3c3ccc(C)nc3)ncn2)c(OC)cc1N1CCC(N2C[C@H]3C[C@@H]2CO3)CC1 [Example 227, N-(2-(4-((1R,4R)-2-oxa-5-azabicyclo[2.2.1]heptane-5-yl)piperidine-1-yl)-4-methoxy-5-((6-((R)-3-(6-methylpyridine-3-yl)isoxazolidine-2-yl)pyrimidine-4-yl)amino)phenyl)acrylamide]",B (50 nM ≤ GI50 < 500 nM)
4,"C=CC(=O)Nc1cc(Nc2cc(N3OCC[C@@H]3c3cccc(C(F)(F)F)c3)ncn2)c(OC)cc1N(C)CCN(C)C [compound 449, N-(2-((2-(dimethylamino)ethyl)(methyl)amino)-4-methoxy-5-((6-((R)-3-(3-(trifluoromethyl)phenyl)isoxazolidine-2-yl)pyrimidine-4-yl)amino)phenyl)acrylamide]",A (GI50 < 50 nM)
5,"C=CC(=O)Nc1cc(Nc2cc(N3OCC[C@@H]3c3cc(F)cc(F)c3)ncn2)cc(N2CCN(C)CC2)c1 [compound 633, N-(3-((6-((R)-3-(3,5-difluorophenyl)isoxazolidine-2-yl)pyrimidine-4-yl)amino)-5-(4-methylpiperazine-1-yl)phenyl)acrylamide]",B (50 nM ≤ GI50 < 500 nM)
6,"C=CC(=O)Nc1cc(Nc2cc(N3OCC[C@@H]3c3ccccc3)ncn2)c(OC)cc1N1CCN(C2CCCC2)CC1 [Example 279, N-(2-(4-cyclopentylpiperazine-1-yl)-4-methoxy-5-((6-((R)-3-phenylisoxazolidine-2-yl)pyrimidine-4-yl)amino)phenyl) acrylamide]",A (GI50 < 50 nM)
7,"C=CC(=O)Nc1cc(Nc2cc(N3OCC[C@@H]3c3cc(F)cc(F)c3)ncn2)c(OC)cc1N1CCC(N2CCN(C)C[C@H]2C)CC1 [compound 761, N-(5-((6-((R)-3-(3,5-difluorophenyl)isoxazolidine-2-yl)pyrimidine-4-yl)amino)-2-(4-((R)-2,4-dimethylpiperazine-1-yl)piperidine-1-yl)-4-methoxyphenyl) acrylamide]",A (GI50 < 50 nM)
8,"C=CC(=O)Nc1cc(Nc2cc(N3OCC[C@@H]3c3cccc(F)c3)ncn2)c(OC)cc1N1CCC(N(C)C)CC1 [Example 245, N-(2-(4-(dimethylamino)piperidine-1-yl)-5-((6-((R)-3-(3-fluorophenyl)isoxazolidine-2-yl)pyrimidine-4-yl)amino)-4-methoxyphenyl) acrylamide]",A (GI50 < 50 nM)
9,"C=CC(=O)Nc1cc(Nc2cc(N3OCC[C@@H]3c3ccc(F)cc3F)ncn2)c(OC)cc1N1CCC(N2CCN(C(C)=O)CC2)CC1 [compound 427, N-(2-(4-(4-acetylpiperazine-1-yl)piperidine-1-yl)-5-((6-((R)-3-(2,4-difluorophenyl)isoxazolidine-2-yl)pyrimidine-4-yl)amino)-4-methoxyphenyl) acrylamide]",A (GI50 < 50 nM)

# Continued, values first:
row,Ba/F3 (NPH) Activity,SMILES
1,A (GI50 < 50 nM),"C=CC(=O)Nc1cc(Nc2cc(N3OCC[C@@H]3c3cccc(C)c3F)ncn2)c(OC)cc1N1CCC(N(C)C)CC1 [compound 864, N-(2-(4-(dimethylamino)piperidine-1-yl)-5-((6-((R)-3-(2-fluoro-3-methylphenyl)isoxazolidine-2-yl)pyrimidine-4-yl)amino)-4-methoxyphenyl) acrylamide]"
2,A (GI50 < 50 nM),"C=CC(=O)Nc1cc(Nc2cc(N3OCC[C@@H]3Cc3cccc(Cl)c3Cl)ncn2)c(OC)cc1N1CCN(C)CC1 [compound 983, N-(5-((6-((S)-3-(2,3-dichlorobenzyl)isoxazolidine-2-yl)pyrimidine-4-yl)amino)-4-methoxy-2-(4-methylpiperazine-1-yl)phenyl)acrylamide]"
3,A (GI50 < 50 nM),"C=CC(=O)Nc1cc(Nc2cc(N3OCC[C@@H]3c3ccc(F)c(Cl)c3)ncn2)c(OC)cc1N1CCC(N2CCN(C(C)=O)CC2)CC1 [compound 763, N-(2-(4-(4-acetylpiperazine-1-yl)piperidine-1-yl)-5-((6-((R)-3-(3-chloro-4-fluorophenyl)isoxazolidine-2-yl)pyrimidine-4-yl)amino)-4-methoxyphenyl) acrylamide]"
4,C (500 nM ≤ GI50 < 5000 nM),"C=CC(=O)Nc1cc(Nc2cc(N3OCC[C@H]3c3c(F)cccc3F)ncn2)c(OC)cc1N1CCN(CC)CC1 [compound 895, N-(5-((6-((S)-3-(2,6-difluorophenyl)isoxazolidine-2-yl)pyrimidine-4-yl)amino)-2-(4-ethylpiperazine-1-yl)-4-methoxyphenyl) acrylamide]"
5,A (GI50 < 50 nM),"C=CC(=O)Nc1cc(Nc2cc(N3OCC[C@@H]3c3cccc(F)c3F)ncn2)c(OC)cc1N1C[C@@H]2CCN(C)[C@@H]2C1 [compound 876, N-(5-((6-((R)-3-(2,3-difluorophenyl)isoxazolidine-2-yl)pyrimidine-4-yl)amino)-4-methoxy-2-((3aS,6aS)-1-methylhexahydropyrrolo [3,4-b]pyrrole-5(1H)-yl)phenyl) acrylamide]"
6,A (GI50 < 50 nM),"C=CC(=O)Nc1cc(Nc2cc(N3OCC[C@@H]3c3cc(F)ccc3F)ncn2)c(OC)cc1N1CCC(N2CC3CC2CN3C)CC1 (stereo partly drawn) [compound 877, N-(5-((6-((R)-3-(2,5-difluorophenyl)isoxazolidine-2-yl)pyrimidine-4-yl)amino)-4-methoxy-2-(4-(5-methyl-2,5-diazabicyclo [2.2.1]heptane-2-yl)piperidine-1-yl)phenyl)acrylamide]"
7,A (GI50 < 50 nM),"C=CC(=O)Nc1cc(Nc2cc(N3OCC[C@@H]3Cc3cccc(F)c3C)ncn2)c(OC)cc1N1CCC(N2C[C@H]3C[C@@H]2CO3)CC1 [compound 1039, N-(2-(4-((1R,4R)-2-oxa-5-azabicyclo [2.2.1]heptane-5-yl)piperidine-1-yl)-5-((6-((S)-3-(3-fluoro-2-methylbenzyl)isoxazolidine-2-yl)pyrimidine-4-yl)amino)-4-methoxyphenyl) acrylamide]"
8,A (GI50 < 50 nM),"C=CC(=O)Nc1cc(Nc2cc(N3OCC[C@@H]3c3ccc(Cl)cc3)ncn2)c(OC)cc1N1CCC(N2CCN(C(C)C)CC2)CC1 [compound 807, N-(5-((6-((R)-3-(4-chlorophenyl)isoxazolidine-2-yl)pyrimidine-4-yl)amino)-2-(4-(4-isopropylpiperazine-1-yl)piperidine-1-yl)-4-methoxyphenyl) acrylamide]"
